Key:
[1] = system: microtubuli; details: cited from earlier work
[2] = Tolerability in MaTu-bearing nude mice (toxic deaths, body weight change, hemotoxicity); assay type: in vivo, Ncr:nu/nu female mice; details: i.p., 12.5 mg/kg/inj., treatment d 10-13
Source text: |Animals: Ncr:nu/nu female

[3] = system: P388 cells; details: in vitro, free vs liposome-encapsulated vs nanoparticular taxol; cited from earlier work
[4] = system: human breast tumors; details: cited from earlier work
[5] = system: P388 leukemia; details: implanted P388 leukemia; cited from earlier work
[6] = system: B16 melanoma; details: implanted B16 melanoma; cited from earlier work
[7] = system: P388; details: 12.5 mg/kg/4 days; free vs liposomal; cited from earlier work
[8] = dilution of Cremophor/alcohol solutions with physiological salt solution; cited from earlier work
[9] = system: human glioblastoma; details: 12.5 mg/kg/4 days; cited from earlier work
[10] = cited from earlier work

Molecule | depolymerization of microtubuli [1] | arrangement and bundling of microtubuli ([1]; during the whole of the cell cycle) | polymerization of microtubuli ([1]; from tubuli dimers) | BWC (%) d10-13 [2] | Toxic deaths (d): day of death ([2]; 8 nude mice) | Toxic deaths (d): number ([2]; 8 nude mice) | growth inhibition of P388 cells [3] | antineoplastic activity [4] | antineoplastic activity [5] | antineoplastic activity [6] | therapeutic effectiveness on P388 in vivo [7] | stability in physiological salt solution [8] | decrease in tumor growth [9] | toxicities observed in man [10]
CC(=O)O[C@H]1C(=O)[C@@]2(C)[C@H]([C@H](OC(=O)c3ccccc3)[C@]3(O)C[C@H](OC(=O)[C@H](O)[C@@H](NC(=O)c4ccccc4)c4ccccc4)C(C)=C1C3(C)C)[C@]1(OC(C)=O)CO[C@@H]1C[C@@H]2O [Taxol] | stabilizes the microtubuli by inhibiting their depolymerization | abnormal arrangement and bundling of microtubuli | promotes the polymerization of microtubuli | -1% | 16 days | 1 | inhibited equally by all three forms of the drug | clear antineoplastic activity | clear antineoplastic activity | clear antineoplastic activity | comparable in their therapeutic effectiveness | not more than 24 hours | significant decrease in tumor growth | 
polyethoxylated castor oil [Cremophor] |  |  |  |  |  |  |  |  |  |  |  |  |  | increased formation of chylomicrons
